{
  "source": "patent US11345700B2",
  "about": "“Methods of preparing inhibitors of influenza viruses replication” (priority 2013, dated 2022)",
  "test_system": "influenza A strains",
  "experiment": "microbe, parasite or virus in culture",
  "assay_type": "cell-based",
  "settings": "H3N2, MDCK, read-out: Cell Protection Assay EC50 ± SD, A/Texas/12/2007, H3N2, amantadine resistance (phenotypic), oseltamivir carboxylate resistance NA 119V",
  "data": [
    {"smiles": "O=C(O)[C@H]1[C@H]2CC[C@H](CC2)[C@@H]1Nc1nc(-c2c[nH]c3ncc(F)cc23)ncc1F", "note": "[Compound (1)]", "values": [
      {"measurement": "EC50", "result": "650 ± 220", "unit": "pM"}
    ]}
  ]
}
